The structures appear in SMILES notation. Read-outs that look alike come from different tables or passages of the source.

For test [1], the target named is T1, human cannabinoid receptor type 2 (Homo sapiens, UniProt P34972).
T1 construct: expressed in transfected cells; membrane preparation
Put plainly: Human CB2 Radioligand Binding Assay. The settings on record: membranes from stably transfected CHO CB2 cells. In a few lines:
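Filtration competition binding on membranes from CHO cells stably expressing human CB2, with [3H]CP-55,940 at its lot-specific Kd, in 50 mM Tris-HCl pH 7.4, EGTA, MgCl2, 5 mg/ml BSA, 1% DMSO; 90 min at 30° C. Compounds at 10 uM single point or dose-response; bound radioactivity by scintillation, 100 nM CP-55,940 as 100% efficacy.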

Test [2] deals with T2, human cannabinoid receptor type 1 (Homo sapiens, UniProt P21554).
T2 construct: purchased Perkin Elmer RBHCB1M; host or cells: HEK 293 EBNA cells
In words: Human CB1 Radioligand Binding Assay (basis of selectivity, CB2 vs. CB1). The settings on record: CB1: HEK 293 EBNA cells expressing human CB1; CB2: CHO CB2 membranes. The method, then:
2. Human CB1 Radioligand Binding Assay
The incubation buffer was composed of 50 mM Tris-HCl pH 7.4, 2.5 mM EDTA, 5 mM MgCl2, 5.0 mg/ml fatty acid free BSA and the wash buffer was composed of 50 mM Tris-HCl pH 7.4, 2.5 mM EDTA, 5 mM MgCl2, 0.5 mg/ml fatty acid free BSA.

[3] abbreviates: competition with [3H] CP-55,940, read-out: CB2 Ligand Binding Asssay EC50.
Where [4] appears, read: CB2 Ligand Binding Asssay EC50, competition with [3H] CP-55,940.

T1 sequence (P34972 whole entry): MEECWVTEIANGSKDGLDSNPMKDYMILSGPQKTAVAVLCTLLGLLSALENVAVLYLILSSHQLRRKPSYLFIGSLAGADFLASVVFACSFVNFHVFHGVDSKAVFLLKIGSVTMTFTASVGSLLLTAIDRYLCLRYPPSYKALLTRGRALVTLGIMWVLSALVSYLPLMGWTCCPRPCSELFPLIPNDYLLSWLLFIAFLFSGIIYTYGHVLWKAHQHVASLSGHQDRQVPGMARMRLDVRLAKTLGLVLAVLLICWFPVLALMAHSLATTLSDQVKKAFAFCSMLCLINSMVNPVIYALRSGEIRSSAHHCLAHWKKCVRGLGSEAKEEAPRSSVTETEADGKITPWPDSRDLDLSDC
T2 sequence (P21554 whole entry): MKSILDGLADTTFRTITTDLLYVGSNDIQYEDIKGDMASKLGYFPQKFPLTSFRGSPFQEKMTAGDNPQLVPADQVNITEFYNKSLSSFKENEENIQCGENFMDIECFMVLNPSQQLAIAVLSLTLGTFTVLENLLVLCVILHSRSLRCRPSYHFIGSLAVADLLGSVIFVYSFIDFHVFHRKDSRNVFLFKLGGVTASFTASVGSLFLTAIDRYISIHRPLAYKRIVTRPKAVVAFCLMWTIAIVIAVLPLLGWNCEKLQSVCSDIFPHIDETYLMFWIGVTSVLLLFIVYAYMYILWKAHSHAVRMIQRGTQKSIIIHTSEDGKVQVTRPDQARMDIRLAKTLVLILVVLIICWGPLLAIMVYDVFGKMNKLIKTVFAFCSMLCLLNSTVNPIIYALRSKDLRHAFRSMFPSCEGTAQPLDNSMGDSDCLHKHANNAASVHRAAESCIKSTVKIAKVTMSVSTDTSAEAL

Turning to `CC(C)(C)c1ccc2nc(-c3ccccc3Cl)nc(N3CCCCC3)c2c1` [Example 170, 6-tert-Butyl-2-(2-chlorophenyl)-4-(piperidin-1-yl)quinazoline], in test [1] (setting [3]), the EC50 was less than 1000 nM. Moreover, in test [2], the “Selectivity, CB2 vs. CB1” value is recorded as “+ (+ indicates > 10−fold)”.

Take `COC(=O)N1CCN(c2nc(-c3ccccc3Cl)nc3ccccc23)CC1` [Example 92, Methyl 4-(2-(2-Chlorophenyl)quinazolin-4-yl)piperazine-1-carboxylate]: the half-maximal effective concentration (EC50) in test [1] (setting [3]) is more than 1000 nM. In test [2], the “Selectivity, CB2 vs. CB1” value was “− (− indicates ≦ 10−fold)”.

For `CC(=O)N1CCCN(c2nc(-c3ccccc3Cl)nc3ccccc23)CC1` [Example 334, 1-(4-(2-(2-Chlorophenyl)quinazolin-4-yl)-1,4-diazepan-1-yl)ethanone], in test [1] (setting [3]), the EC50 was less than 1000 nM. In addition, the “Selectivity, CB2 vs. CB1” value in test [2] was “− (− indicates ≦ 10−fold)”.

As to `CCN(CC)C(=O)c1ccc2nc(-c3ccccc3Cl)nc(N3CCN(C(C)=O)CC3)c2c1` [Example 316, 4-(4-Acetylpiperazin-1-yl)-2-(2-chlorophenyl)-N,N-diethylquinazoline-6-carboxamide], the EC50 in test [1] (setting [3]) is less than 1000 nM. In addition, in test [2], the “Selectivity, CB2 vs. CB1” value is listed as “+ (+ indicates > 10−fold)”.

`CC(=O)N1CCN(c2nc(-c3cccc(F)c3)nc3ccccc23)CC1` [Example 154, 1-(4-(2-(3-Fluorophenyl)quinazolin-4-yl)piperazin-1-yl)ethanone]: the 50% effective concentration (EC50) in test [1] (setting [3]) was less than 1000 nM. Moreover, the “Selectivity, CB2 vs. CB1” value in test [2] is reported as “+ (+ indicates > 10−fold)”.

As to `Clc1ccc(-c2nc(N3CCOCC3)c3ccccc3n2)cc1` [Example 126, 4-(2-(4-Chlorophenyl)quinazolin-4-yl)morpholine], in test [1] (setting [3]), the EC50 was less than 1000 nM. In addition, the “Selectivity, CB2 vs. CB1” value in test [2] is “+ (+ indicates > 10−fold)”.

Turning to `CC(=O)N1CCN(c2nc(-c3ccccc3Cl)nc3ccc(F)cc23)CC1` [Example 268, 1-(4-(2-(2-Chlorophenyl)-6-fluoroquinazolin-4-yl)piperazin-1-yl)ethanone], the EC50 in test [1] (setting [3]) is less than 1000 nM. Further, the “Selectivity, CB2 vs. CB1” value in test [2] was “− (− indicates ≦ 10−fold)”.

`COc1cccc2nc(-c3ccccc3Cl)nc(N3CCN(C(C)=O)CC3)c12` [Example 243, 1-(4-(2-(2-Chlorophenyl)-5-methoxyquinazolin-4-yl)piperazin-1-yl)ethanone]: in test [1] (setting [3]), the concentration giving a half-maximal response (EC50) was less than 1000 nM. In addition, the “Selectivity, CB2 vs. CB1” value in test [2] is given as “+ (+ indicates > 10−fold)”.

As for `c1ccc2c(N3CCCCC3)nc(C3CCCCC3)nc2c1` [Example 34, 2-Cyclohexyl-4-(piperidin-1-yl)quinazolines], the half-maximal effective concentration (EC50) in test [1] (setting [3]) was less than 1000 nM. Also, in test [2], the “Selectivity, CB2 vs. CB1” value was “− (− indicates ≦ 10−fold)”.

On to `Clc1ccccc1-c1nc(N2CCNCC2)c2c(Cl)cccc2n1` [Example 236, 5-Chloro-2-(2-chlorophenyl)-4-(piperazin-1-yl)quinazoline], for which the half-maximal effective concentration (EC50) in test [1] (setting [3]) was more than 1000 nM. The “Selectivity, CB2 vs. CB1” value in test [2] is recorded as “− (− indicates ≦ 10−fold)”.

The compound `CC(C)(C)OC(=O)N1CCN(c2nc(-c3ccccc3Cl)nc3ccccc23)C(=O)C1` [Example 75, tert-Butyl 4-(2-(2-Chlorophenyl)quinazolin-4-yl)-3-oxopiperazine-1-carboxylate] returned a 50% effective concentration (EC50) in test [1] (setting [4]) of more than 1000 nM. Further, the “Selectivity, CB2 vs. CB1” value in test [2] is “− (− indicates ≦ 10−fold)”.

For the compound `CC(C)c1nc(N2CCOCC2)c2ccccc2n1` [Example 147, 2-Isopropyl-4-morpholin-4-ylquinazoline], the concentration giving a half-maximal response (EC50) in test [1] (setting [4]) is more than 1000 nM. For the same compound, the “Selectivity, CB2 vs. CB1” value in test [2] is on record as “− (− indicates ≦ 10−fold)”.

Take `Cc1cccc2c(N3CCCC3)nc(CNS(=O)(=O)c3cccc4ccccc34)nc12` [Example 2, N-((8-Methyl-4-(pyrrolidin-1-yl)quinazolin-2-yl)methyl)naphthalene-1-sulfonamide]: the EC50 in test [1] (setting [3]) was less than 1000 nM. The “Selectivity, CB2 vs. CB1” value in test [2] is recorded as “+ (+ indicates > 10−fold)”.

On to `COc1ccc2nc(-c3ccccc3F)nc(N3CCN(C(C)=O)CC3)c2c1` [Example 274, 1-(4-(2-(2-Fluorophenyl)-6-methoxyquinazolin-4-yl)piperazin-1-yl)ethanone], for which the EC50 in test [1] (setting [3]) is less than 1000 nM. In addition, the “Selectivity, CB2 vs. CB1” value in test [2] was “− (− indicates ≦ 10−fold)”.

A word on the EC50: it is the concentration that produces a half-maximal response.

These data come from patent US20090209536A1, “AMINOQUINAZOLINE CANNABINOID RECEPTOR MODULATORS FOR TREATMENT OF DISEASE” (KALYPSYS, INC., priority 2007, published 2009).
